Test results taken from PMC3858267, “The Enhanced In Vivo Activity of the Combination of a MEK and a PI3K Inhibitor Correlates with [^18F]-FLT PET in Human Colorectal Cancer Xenograft Tumour-Bearing Mice” (PLoS ONE, 2013).
Read-outs that look alike come from different tables or passages of the source. Marks after values point to notes of the source that are not given here.

Assays:
phospho-Akt (Ser473) = assay: PD Western blot of HCT116 tumour lysates: AKT phosphorylation; assay type: in vivo, mice; conditions: 0.25–24 hours after single p.o. dose; 1 mg/kg PD 0325901, 100 mg/kg GDC-0941 or combination (combination compared to single agent PI3K inhibitor)
Procedure: (§1) Blood was collected into heparinised tubes, and plasma was separated and stored at −20°C until analysed. Tumours were removed, snap frozen in liquid nitrogen and stored at −80°C prior to PK and PD analyses, as described below.
For PD analyses, tumours (2 to 4∼2.5 mm^3 pieces) were disaggregated in 1 ml PhosphoSafe™ extraction reagent (Merck Chemicals Ltd, Nottingham, Nottinghamshire, UK) containing a protease inhibitor cocktail (Pierce, Thermo Scientific, Rockford, Illinois, USA) at the manufacturer's recommended dilution using a Medimachine™ (BD Biosciences, Oxford, UK), centrifuged, and the supernatant removed and analysed by Western blotting. […] Antibody binding was detected by incubation with a HRP-conjugated goat anti-rabbit polyclonal antibody (Dako, Glastrop, Denmark).

[1] = test system: HT29 human tumour xenografts; assay: Anti-tumour activity (time to RTV3/RTV4) in HT29 human tumour xenografts; assay type: in vivo, mice; conditions: 1 mg/kg PD 0325901, 100 mg/kg GDC-0941, alone or in combination, p.o. once daily for 14 days
Procedure: (§2) Animal studies were all carried out using female athymic CD1 nude mice (Charles River, Kent, UK), implanted with HCT116 or HT29 xenografts (1×10^7 cells in 50 µl media injected subcutaneously into the right flank), maintained and handled in isolators under specific pathogen-free conditions.

[2] = set-up: method as in PMID 18754654, PMID 21838594; conditions: in mice; cited from earlier work
[3] = test system: HCT116 human tumour xenografts; assay: Anti-tumour activity (time to RTV3/RTV4) in HCT116 human tumour xenografts; assay type: in vivo, mice; conditions: 1 mg/kg PD 0325901, 100 mg/kg GDC-0941, alone or in combination, p.o. once daily for 14 days
Procedure: as §2

[4] = test system: phospho-S6 ribosomal protein (Ser235/236); assay: PD Western blot of HCT116 tumour lysates: S6 phosphorylation; assay type: in vivo, mice; conditions: 0.25–24 hours after single p.o. dose; 1 mg/kg PD 0325901, 100 mg/kg GDC-0941 or combination (combination compared to single agent PI3K inhibitor)
phospho-4EBP1 (Thr37/46) = assay: PD Western blot of HCT116 tumour lysates: 4EBP1 phosphorylation; assay type: in vivo, mice; conditions: 0.25–24 hours after single p.o. dose; 1 mg/kg PD 0325901, 100 mg/kg GDC-0941 or combination (combination compared to single agent PI3K inhibitor)
HCT116 cells = test system: HCT116 cells; set-up: method as in PMID 22415236; conditions: previously determined; read-out: in vitro GI50; cited from earlier work
[5] = test system: HCT116 human tumour xenografts; assay: [18F]-FLT PET tumour uptake in HCT116 xenografts; assay type: in vivo, mice; conditions: 1 mg/kg PD 0325901, 100 mg/kg GDC-0941, alone or in combination, p.o. once daily for 2 days
Procedure: Before treatment and after 2 days of treatment as described above, mice bearing HCT116 human tumour xenografts (7–9 mice/group) were anaesthetised, cannulated via their tail vein and placed in the prone position on a custom-made heated bed, which held three mice at once, within a MOSAIC PET scanner (Philips, Eindhoven, NL). [^18F]-FLT was obtained from PETNET (PETNET, Nottingham, UK), and radioactivity levels were measured using a Capintec well counter (Capintec, NJ, USA). Approximately 10 MBq of [^18F]-FLT was administered intravenously and a 1 hour dynamic PET scan was performed, consisting of ten 1 minute, six 5 minute and two 10 minute time frames. Mice were recovered after scanning and continued to receive treatment for the remainder of the study. Data were analysed using Imalytics software (Philips, Aachen, Germany); a 3D region of interest was drawn around the tumour and the standardised uptake value (SUV) was calculated by dividing the tissue concentration (MBq/ml) by the injected dose (MBq)/g body weight. Mean SUV values were then plotted against time, and the area under the curve (AUC) and the percentage change in the area under the curve relative to the baseline scan was calculated.

[6] = Single dose PK: plasma and tumour tissue drug concentrations by HPLC in HCT116 xenograft-bearing mice; assay type: in vivo; conditions: for AUC: po; for AUC / GDC-0941 AUC Tumour / PD 0325901 AUC Tumour: over 24 hours, mean ± SD
Procedure: as §1
For PK analyses, drug was extracted from 60 µl aliquots of samples by protein precipitation with 9 volumes of acetonitrile (MeCN). Samples were centrifuged at 3000g for 5 minutes at 4°C, and 500 µl of the supernatant evaporated to dryness under nitrogen gas at 30°C using a Zymark Evaporator (Caliper Life Sciences Limited, Cheshire, UK). Samples were reconstituted in 100 µl HPLC mobile phase consisting of 40% acetonitrile and 60% (v/v) 0.1% formic acid pH 4.0 (v/v), and 50 µl of the supernatant applied to a 10 cm Xterra Waters 186000436 C18 3.5 µm column (Waters, Hertfordshire, UK) fitted with an in line filter. Compounds were eluted with the above mobile phase at 1 ml/min using a Waters Millennium Chromatography system (Waters, Hertfordshire, UK). Analytes were detected by UV absorbance at 275 and 315 nm, at retention times of 6.8–7.3 and 3.9–4.3 minutes for PD 0325901 and GDC-0941, respectively. For analysis of drug in tumour tissue, tumours were homogenised in 3 volumes of PBS (w/v) and 50 µl aliquots extracted with 9 volumes of MeCN, and centrifuged, evaporated and analysed as described above.

[7] = test system: phospho-p44/42 MAPK (Thr202/Tyr204) (ERK1/2); assay: PD Western blot of HCT116 tumour lysates: ERK1/2 phosphorylation; assay type: in vivo, mice
Procedure: as §1
For PD analyses, tumours (2 to 4∼2.5 mm^3 pieces) were disaggregated in 1 ml PhosphoSafe™ extraction reagent (Merck Chemicals Ltd, Nottingham, Nottinghamshire, UK) containing a protease inhibitor cocktail (Pierce, Thermo Scientific, Rockford, Illinois, USA) at the manufacturer's recommended dilution using a Medimachine™ (BD Biosciences, Oxford, UK), centrifuged, and the supernatant removed and analysed by Western blotting. Proteins were resolved on Novex® 4–12% (w/w) Tris-glycine gels (Invitrogen Ltd, Renfrew, Paisley, UK) and electrotransferred onto Hybond C nitrocellulose membrane (GE Healthcare Life Sciences, Hatfield, Hertfordshire, UK). Membranes were incubated with phospho-4EBP1 (Thr37/46) (#2855), phospho-p44/42 MAPK (Thr202/Tyr204) (#4370), phospho-Akt (Ser473) (#4060) or phospho-S6 ribosomal protein (Ser235/236) (#4858) monoclonal antibodies obtained from Cell Signalling Technology (New England BioLabs (UK) Ltd, Hitchin, Hertfordshire, UK). Antibody binding was detected by incubation with a HRP-conjugated goat anti-rabbit polyclonal antibody (Dako, Glastrop, Denmark). Blots were developed using Pierce ECL (enhanced chemiluminescence) western blotting substrate (Thermo Scientific, Rockford, Illinois, USA), or SuperSignal® West Dura extended duration substrate (Thermo Scientific, Rockford, Illinois, USA), and Kodak X-ray film (Genetic Research Instrumentation Ltd, Braintree, Essex, UK) on a MediPhot 937 film developer (Colenta, Weiner Neustadt, Austria), then digitally scanned.

[8] = rat, in vivo, 100 mg/kg; cited from earlier work
[9] = set-up: method as in PMID 20332327; conditions: single agent; such as retinal vein occlusion; cited from earlier work
[10] = cited from earlier work
[11] = single p.o. dose 10 mg/kg PD 0325901+10 mg/kg GDC-0941

CS(=O)(=O)N1CCN(Cc2cc3nc(-c4cccc5[nH]ncc45)nc(N4CCOCC4)c3s2)CC1 [GDC-0941, 2-(1H-Indazol-4-yl)-6-(4-methanesulfonyl-piperazin-1-ylmethyl)-4-morpholin-4-yl-thieno[3,2-d]pyrimidine]
phosphorylation of AKT in tumour (phospho-Akt (Ser473)): reduction
Time to RTV3, Mean ± SD [1]: 11 ± 9 days
Time to RTV3, Median ± IR [1]: 10 ± 6 days
Time to RTV4, Mean ± SD [1]: 13 ± 9 days
Time to RTV4, Median ± IR [1]: 10 ± 5 days
oral bioavailability [2]: 78%
Time to RTV3, Mean ± SD [3]: 15 ± 4 days
Time to RTV3, Median ± IR [3]: 16 ± 5 days
Time to RTV4, Mean ± SD [3]: 19 ± 5 days
Time to RTV4, Median ± IR [3]: 18 ± 4 days
phosphorylation of S6 in tumour [4]: reduction
phosphorylation of 4EBP1 in tumour (phospho-4EBP1 (Thr37/46)): reduction
GI50 (HCT116 cells): 1080 nM
decrease in tumour [18F]-FLT uptake (SUV AUC) after 2 days versus baseline [5]: no significant difference
increase in plasma AUC with 10-fold increment in dose ([6]; GDC-0941 100 versus 10 mg/kg): 7 fold
increase in tumour AUC following a 10-fold increase in dose ([6]; GDC-0941 100 versus 10 mg/kg): 15 fold
AUC ([6]; mouse, plasma, 10 mg/kg, single p.o. dose 10 mg/kg GDC-0941 alone, read-out: GDC-0941 AUC Plasma (converted)): 5.4 µM·h
AUC ([6]; mouse, plasma, 10 mg/kg, single p.o. dose 10 mg/kg PD 0325901+10 mg/kg GDC-0941, read-out: GDC-0941 AUC Plasma (converted)): 6.33 µM·h
AUC ([6]; mouse, plasma, 100 mg/kg, single p.o. dose 100 mg/kg GDC-0941 alone, read-out: GDC-0941 AUC Plasma (converted)): 39.4 µM·h
AUC ([6]; mouse, plasma, single p.o. dose 1 mg/kg PD 0325901+10 mg/kg GDC-0941, read-out: GDC-0941 AUC Plasma (converted)): 6.55 µM·h
AUC ([6]; mouse, plasma, single p.o. dose 1 mg/kg PD 0325901+100 mg/kg GDC-0941, read-out: GDC-0941 AUC Plasma (converted)): 22.6 µM·h
AUC ([6]; mouse, plasma, single p.o. dose 10 mg/kg PD 0325901+100 mg/kg GDC-0941, read-out: GDC-0941 AUC Plasma (converted)): 58.8 µM·h
GDC-0941 AUC Tumour ([6]; single p.o. dose 1 mg/kg PD 0325901+10 mg/kg GDC-0941): 396±144^j µM.min
GDC-0941 AUC Tumour ([6]; single p.o. dose 1 mg/kg PD 0325901+100 mg/kg GDC-0941): 3196±183^h µM.min
GDC-0941 AUC Tumour ([6]; single p.o. dose 10 mg/kg GDC-0941 alone): 364±130^g µM.min
GDC-0941 AUC Tumour [6, 11]: 124±51^g,j µM.min
GDC-0941 AUC Tumour ([6]; single p.o. dose 10 mg/kg PD 0325901+100 mg/kg GDC-0941): 2649±861^i µM.min
GDC-0941 AUC Tumour ([6]; single p.o. dose 100 mg/kg GDC-0941 alone): 5422±962^h,i µM.min
phosphorylation of ERK1/2 in tumour ([7]; 0.25–24 hours after single p.o. dose, 100 mg/kg GDC-0941 alone or with 1 mg/kg PD 0325901 (combination compared to single agent MEK inhibitor)): reduction

O=C(NOC[C@H](O)CO)c1ccc(F)c(F)c1Nc1ccc(I)cc1F [PD 0325901]
phosphorylation of AKT in tumour (phospho-Akt (Ser473)): no marked effect
Time to RTV3, Mean ± SD [1]: 10 ± 4 days
Time to RTV3, Median ± IR [1]: 10 ± 4 days
Time to RTV4, Mean ± SD [1]: 11 ± 4 days
Time to RTV4, Median ± IR [1]: 11 ± 3 days
toxicity of oral and i.v. doses [8]: non-toxic
toxicity in clinical trials [9]: ocular and neurological toxicity
Time to RTV3, Mean ± SD [3]: 19 ± 7 days
Time to RTV3, Median ± IR [3]: 18 ± 12 days
Time to RTV4, Mean ± SD [3]: 23 ± 8 days
Time to RTV4, Median ± IR [3]: 21 ± 11 days
phosphorylation of S6 in tumour [4]: no marked effect
maximum tolerated dose [10]: 25 mg/kg
phosphorylation of 4EBP1 in tumour (phospho-4EBP1 (Thr37/46)): no marked effect
GI50 (HCT116 cells): 21 nM
decrease in tumour [18F]-FLT uptake (SUV AUC) after 2 days versus baseline [5]: no significant difference
increase in plasma AUC of PD 0325901 following concomitant dosing with GDC-0941 ([6]; 1 or 10 mg/kg PD 0325901 alone versus with GDC-0941): 2–3 fold
increase in plasma AUC with 10-fold increment in dose ([6]; PD 0325901 10 versus 1 mg/kg): 15 fold
tumour tissue level (undetectable, limit of detection) ([6]; all time points after 1 mg/kg PD 0325901, per g of tumour material): < 0.4 nmol/g
concentration at 24 h ([6]; mouse, plasma, oral, at 24 hours after 1 mg/kg PD 0325901, read-out: plasma level (undetectable, limit of detection)): < 100 nM
AUC ([6]; mouse, plasma, 1 mg/kg, single p.o. dose 1 mg/kg PD 0325901 alone, read-out: PD 0325901 AUC Plasma (converted)): 1.38 µM·h
AUC ([6]; mouse, plasma, 10 mg/kg, single p.o. dose 10 mg/kg PD 0325901+10 mg/kg GDC-0941, read-out: PD 0325901 AUC Plasma (converted)): 40 µM·h
AUC ([6]; mouse, plasma, 10 mg/kg, single p.o. dose 10 mg/kg PD 0325901 alone, read-out: PD 0325901 AUC Plasma (converted)): 21.6 µM·h
AUC ([6]; mouse, plasma, single p.o. dose 1 mg/kg PD 0325901+10 mg/kg GDC-0941, read-out: PD 0325901 AUC Plasma (converted)): 2.73 µM·h
AUC ([6]; mouse, plasma, single p.o. dose 1 mg/kg PD 0325901+100 mg/kg GDC-0941, read-out: PD 0325901 AUC Plasma (converted)): 3.15 µM·h
AUC ([6]; mouse, plasma, single p.o. dose 10 mg/kg PD 0325901+100 mg/kg GDC-0941, read-out: PD 0325901 AUC Plasma (converted)): 54.1 µM·h
PD 0325901 AUC Tumour [6, 11]: 399±72^d,f µM.min
PD 0325901 AUC Tumour ([6]; single p.o. dose 10 mg/kg PD 0325901 alone): 1082±232^d,e µM.min
phosphorylation of ERK1/2 in tumour ([7]; 3 and 6 hours after single p.o. dose of 1 mg/kg PD 0325901): completely ablate
phosphorylation of ERK1/2 in tumour ([7]; 1 hour after single p.o. dose of 1 mg/kg PD 0325901): reduce
